Results published in US20080181866A1, “Amido Anti-viral Compounds” (Genelabs Technologies, Inc., priority 2006, published 2008).

Test system: HCV replication
Assay: HCV replicon assay (luciferase) in ET (Huh-lucubineo-ET) cell line
Type: cell-based
Conditions: Hepatitis C virus, tested at 5 μM; ET replicon cells; luciferase activity measured 48-72 hours later; relative to no compound control
Protocol: A cell line, ET (Huh-lucubineo-ET) was used for screening of compounds of the present invention for inhibiting HCV replication. The ET cell line was stably transfected with RNA transcripts harboring a I389luc-ubi-neo/NS3-3′/ET; replicon with firefly luciferase-ubiquitin-neomycin phosphotransferase fusion protein and EMCV-IRES driven NS3-5B polyprotein containing the cell culture adaptive mutations (E1202G; T12801; K1846T) (Krieger at al, 2001 and unpublished). The ET cells were grown in DMEM (Dulbeco's Modified Eagle's Medium), supplemented with 10% fetal calf serum, 2 mM Glutamine, Penicillin (100 IU/mL)/Streptomycin (100 μg/mL), 1× nonessential amino acids, and 250 μg/mL G418 (“Geneticin”). They were all available through Life Technologies (Bethesda, Md.). The cells were plated at 0.5-1.0×10^4 cells/well in the 96 well plates and incubated for 24 hrs before adding testing compounds. Then the compounds were added to the cells to achieve a final concentration of 0.1 nM to 50 μM and a final DMSO concentration of 0.5%. Luciferase activity were measured 48-72 hours later by adding a lysis buffer and the substrate (Catalog number Glo-lysis buffer E2661 and Bright-Glo luciferase system E2620 Promega, Madison, Wis.). Cells should not be too confluent during the assay. Percent inhibition of replication was plotted relative to no compound control. Under the same condition, cytotoxicity of the compounds was determined using cell proliferation reagent, WST-1 (Roche, Germany). The compounds showing antiviral activities, but no significant cytotoxicities were chosen to determine EC50 and TC50. For these determinations, a 10 point 2-fold serial dilution for each compound was used, which spans a concentration range of 1000 fold. EC50 and similarly TC50 values were calculated by fitting % inhibition at each concentration to the following equation:
% inhibition=100%/[(IC50/[I])^b+1]
where b is Hill's coefficient.
In some preferred embodiments compounds of Formula I will have a % inhibition of at least 20% when tested at 5 μM. In other embodiments the compounds of Formula I will have a % inhibition of at least 50% when tested at 5 μM.

Structure (SMILES) | inhibition at 5 µM
CCCC(C)C(=O)N1C(C2CCOCC2)SC[C@H]1C(=O)Nc1nc(-c2ccc(C(=O)NC3CC3)cc2)cs1 (stereo in doubt) [Compound 7103, 3-(2-Methyl-pentanoyl)-2-(tetrahydro-pyran-4-yl)-thiazolidine-4-carboxylic acid [4-(4-cyclopropylcarbamoyl-phenyl)-thiazol-2-yl]-amide] | 99.8%
O=C(Cc1ccc(NC(=O)[C@@H]2CSC(c3ccncc3)N2C(=O)OCc2ccccc2)cc1)NCc1ccccc1 (stereo in doubt) [Compound 7105, 4-[4-(Benzylcarbamoyl-methyl)-phenylcarbamoyl]-2-pyridin-4-yl-thiazolidine-3-carboxylic acid benzyl ester] | 74.2%
O=C(Nc1ccccc1)c1cccc(NC(=O)[C@@H]2CSC(c3ccncc3)N2C(=O)OCc2ccccc2)c1 (stereo in doubt) [Compound 7112, 4-(3-Phenylcarbamoyl-phenylcarbamoyl)-2-pyridin-4-yl-thizolidine-3-carboxylic acid benzyl ester] | 64.2%
O=C(NCCc1ccccc1)c1ccc(NC(=O)[C@@H]2CSC(c3ccncc3)N2C(=O)OCc2ccccc2)cc1 (stereo in doubt) [Compound 7113, 4-(4-Phenethylcarbamoyl-phenylcarbamoyl)-2-pyridin-4-yl-thiazolidine-3-carboxylic acid benzyl ester] | 86.5%
O=C(Cc1cccc(NC(=O)[C@@H]2CSC(c3ccncc3)N2C(=O)OCc2ccccc2)c1)NCc1ccc(Cl)cc1 (stereo in doubt) [Compound 7115, 4-{3-[(4-Chloro-benzylcarbamoyl)-methyl]-phenylcarbamoyl}-2-pyridin-4-yl-thiazolidine-3-carboxylic acid benzyl ester] | 98%
CN(C)c1ncc(C2SC[C@@H](C(=O)Nc3nc(-c4ccc(C(=O)NC5CC5)cc4)cs3)N2C(=O)OCc2ccccc2)cn1 (stereo in doubt) [Compound 7131, 4-[4-(4-Cyclopropylcarbamoyl-phenyl)-thiazol-2-ylcarbamoyl]-2-(2-dimethylamino-pyrimidin-5-yl)-thiazolidine-3-carboxylic acid benzyl ester] | 100%
COCCNC(=O)c1ccc(NC(=O)[C@@H]2CSC(c3ccncc3)N2C(=O)OCc2ccccc2)cc1 (stereo in doubt) [Compound 7135, 4-[4-(2-Methoxy-ethylcarbamoyl)-phenylcarbamoyl]-2-pyridin-4-yl-thiazolidine-3-carboxylic acid benzyl ester] | 22.1%
COc1ccc(Cc2cnc(NC(=O)[C@@H]3CSC(c4ccncc4)N3C(=O)OCc3ccccc3)s2)cc1 (stereo in doubt) [Compound 7137, 4-[5-(4-Methoxy-benzyl)-thiazol-2-ylcarbamoyl]-2-pyridin-4-yl-thiazolidine-3-carboxylic acid benzyl ester] | 17.1%
O=C(NC1CC1)c1ccc(-c2csc(NC(=O)[C@@H]3Cc4ccccc4CN3C(=O)OCc3ccccc3)n2)cc1 [Compound 7002, (S)-3-[4-(4-Cyclopropylcarbamoyl-phenyl)-thiazol-2-ylcarbamoyl]-3,4-dihydro-1H-isoquinoline-2-carboxylic acid benzyl ester] | 97.5%
O=C(NC1CC1)c1ccc(-c2csc(NC(=O)[C@@H]3CC[C@H](c4ccncc4)N3C(=O)OCc3ccccc3)n2)cc1 [Compound 7003, (2S,5R)-2-[4-(4-Cyclopropylcarbamoyl-phenyl)-thiazol-2-ylcarbamoyl]-5-pyridin-4-yl-pyrrolidine-1-carboxylic acid benzyl ester] | 100%
CC(C)(C)OC(=O)N1[C@@H](c2ccccc2)CC[C@H]1C(=O)Nc1nc(-c2ccc(C(=O)NC3CC3)cc2)cs1 [Compound 7005, (2S,5R)-2-[4-(4-Cyclopropylcarbamoyl-phenyl)-thiazol-2-ylcarbamoyl]-5-phenyl-pyrrolidine-1-carboxylic acid tert-butyl ester] | 97.8%
